Reference: patent publication US12685724B2, “Antidepressant therapy” (ICHILOV TECH LTD., priority 2020, dated 2026)

Legend:
[1] = tested on: patients suffering from post-stroke depression (PSD); assay: Clinical study of maraviroc in patients suffering from post-stroke depression (PSD); format: in vivo, human
Procedure: A clinical study to evaluate the safety, tolerability and efficacy of maraviroc in patients suffering from post-stroke depression (PSD) was performed as follows:
Ten men and women aged 50 to 86 years who experience stroke, i.e., cerebral infarction or transient ischemic attack (TIA) prior to the initiation of the study were enrolled to the study. These subjects also experienced a major depressive episode that develops within 12 months from the stroke/TIA. Clinical diagnosis of stroke was performed according to the World Health Organization Monica Project.
Exclusion criteria comprise e.g. 1) significant acute neurologic illness including: impaired consciousness, Parkinson's disease, Huntington's chorea, progressive supranuclear paralysis, brain tumor, subdural hematoma, multiple sclerosis, hydrocephalus, Binswanger's disease, or severe aphasia, 2) patients diagnosed with dementia or significant cognitive impairment as defined by a MoCA score <20 at screening, or other neurological conditions (multiple sclerosis, Parkinson's disease, epilepsy, Huntington's chorea, brain tumor, subdural hematoma, multiple sclerosis, hydrocephalus, or Binswanger's disease), 3) positive serology for Hepatitis B or C; or for HIV.
Each subject received 300 mg maraviroc daily or 150 mg daily for 10 weeks. Post-treatment follow-up was conducted for 8 weeks after the last dose of Maraviroc. During the 10 weeks of maraviroc treatment the subjects were evaluated every two weeks, and during the 8 weeks of follow-up the subjects were evaluated at the 4th and 8th week after the last dose of maraviroc.
The subjects were evaluated for the efficacy of maraviroc by assessing the improvement in depressive symptoms determined by a change from baseline (i.e., Day 1 pre-dose) in the Montgomery-Asberg Depression Rating Scale (MADRS) total score. Other assessments included, for example, assessment of depressive symptoms by the 16-item Quick Inventory of Depressive Symptomatology-Self Report (QIDS-SR16); assessment of remission, defined as a MADRS total score ≤10; assessment of response, defined as a ≥50% reduction from baseline in MADRS total score; evaluation of symptoms of anxiety as assessed by the Generalized Anxiety Disorder 7-item Scale (GAD-7)—each item is rated on a 4-point scale (0 to 3), with the total score range from 0-21 (higher scores indicating more anxiety); and evaluation of cognitive status, as assessed by cognitive score based on repeatable computerized battery of cognitive tests (Neurotrax) and Montreal Cognitive Assessment (MoCA).
Additional assessments include e.g. the clinical global impression-improvement (CGI-I), a 7 point scale that requires the clinician to assess how much the patient's illness has improved or worsened relative to a baseline state at the beginning of the intervention; the clinical global impression-severity (CGI-S), which evaluates the severity of psychopathology from 1 to 7, and provides an overall clinician-determined summary measure that takes into account all available information, including knowledge of the subject's history, psychosocial circumstances, symptoms, behavior, and the impact of the symptoms on the subject's ability to function; Patient Global Impression scales, commonly used measures of symptom severity, treatment response and the efficacy of treatments; the patient global impression-severity (PGI-S), that provides an overall patient-rated summary measure that assesses the severity of the subject's MDD; the patient global impression of change (PGI-C) which provides an overall patient-rated summary that assesses subject perception of change in their MDD since starting study treatment; the EuroQol Group; 5 dimension (EQ-5D) which is a standardized 2-part instrument for use as a measure of health outcome, primarily designed for self-completion by respondents. […]

hemiparkinsonian monkeys = details: cited from earlier work
[2] = tested on: simian immunodeficiency virus (SIV)-mediated CNS disease; details: rhesus macaques; cited from earlier work
[3] = tested on: subjects with CCR5-tropic HIV-1; details: cited from earlier work

**Q.** For `Cc1nnc(C(C)C)n1[C@@H]1C[C@H]2CC[C@@H](C1)N2CC[C@H](NC(=O)C1CCC(F)(F)CC1)c1ccccc1` [maraviroc], which “effect on anxiety symptoms” value ([1]; PSD patients, maraviroc 300 mg daily, GAD-7) is on record?
**A.** effective in reducing anxiety symptoms

**Q.** And the “side effects reported by the participants during the study” value ([1]; PSD patients, maraviroc 300 mg once daily oral)?
**A.** 1 transient impotence, 1 severe constipation (drug-unrelated)

**Q.** And the “MADRS score following 10 weeks of treatment” value ([1]; PSD patients, maraviroc 300 mg once daily oral, 10 weeks, initial MADRS about 35-40)?
**A.** 5-10

**Q.** What about the “MADRS score, best outcome (normal/symptom-absent, remission)” value ([1]; PSD patients, maraviroc 300 mg once daily oral, initial MADRS >34) of the same compound?
**A.** < 7

**Q.** And the “GAD-7 at data collection” value ([1]; Patient 1, 10 weeks maraviroc 300 mg daily, add-on therapy, GAD-7 at admission 17 (severe))?
**A.** 10

**Q.** And the “GAD-7 at data collection” value ([1]; Patient 2, 10 weeks maraviroc 300 mg daily, add-on therapy, GAD-7 at admission 6 (mild))?
**A.** 6

**Q.** What about the “GAD-7 at data collection” value ([1]; Patient 3, week 7 of maraviroc 300 mg daily, add-on therapy, GAD-7 at admission 8 (mild)) of the same compound?
**A.** 7

**Q.** And the “CGI severity (CGI-S) after four weeks of treatment” value ([1]; Patient 4, maraviroc monotherapy 300 mg daily, CGI=5 (markedly ill) at admission)?
**A.** 3

**Q.** And the “GAD-7 at data collection” value ([1]; Patient 4, week 4 of maraviroc 300 mg daily, monotherapy, GAD-7 at admission 14 (moderate))?
**A.** 8

**Q.** What about the “depressive symptoms on quick inventory of depressive symptoms-self report (QIDS-SR)” value ([1]; all 4 PSD patients, maraviroc 300 mg once daily oral, 4-10 weeks) of the same compound?
**A.** All patients improved their depressive symptoms

**Q.** And the “MADRS score after treatment” value ([1]; all 4 PSD patients, maraviroc 300 mg once daily oral, 4-10 weeks, initial MADRS about 35-40 (>34, severe))?
**A.** < 20

**Q.** What about the “time from first dose to beginning of treatment effects (time to response), depressive scores evaluated by senior psychiatrist” value ([1]; all 4 PSD patients, maraviroc 300 mg once daily oral, add-on (patients 1-3) or monotherapy (patient 4)) of the same compound?
**A.** 1-2 weeks

**Q.** And the “time from first dose to beginning of self-reported treatment effect” value ([1]; all 4 PSD patients, self-report depressive scores, maraviroc 300 mg once daily oral)?
**A.** 1-2 weeks

**Q.** What about the safety and tolerability ([1]; human PSD patients) of the same compound?
**A.** well-tolerated without safety concerns

**Q.** And the “effect on the nigrostriatum” value (hemiparkinsonian monkeys)?
**A.** protects the nigrostriatum

**Q.** What about the “infiltration of T cells into the central nervous system” value (hemiparkinsonian monkeys) of the same compound?
**A.** attenuates the infiltration of T cells into the central nervous system

**Q.** What about the “SIV-mediated CNS disease (SIV RNA in CSF and brain, CD68 immunostaining, axonal APP immunostaining)” value [2] of the same compound?
**A.** inhibited simian immunodeficiency virus (SIV)-mediated CNS disease

**Q.** And the “potential treatment-emergent adverse events” value ([3]; pooled data from two trials in subjects with CCR5-tropic HIV-1)?
**A.** Depressive disorders and anxiety symptoms

**Q.** What about the “most common adverse events, at higher frequency compared with placebo” value ([3]; treatment-experienced subjects) of the same compound?
**A.** upper respiratory tract infections, cough, pyrexia, rash, and dizziness
